Measured values from PubChem BioAssay AID2060510 (Molecular Pharmacology Branch, DTP, NCI, 2025).

Test system: 439559-082-T-J2-PDC spheroids viability
Assay: Anticancer human tumor 439559-082-T-J2-PDC patient-derived colon adenocarcinoma cell line growth inhibition [GQUAD]
Conditions: for IC50: curve of first compound; for viability, T/C: stronger effect = lower value
Source text: DNA G-quadruplex Stabilizer Agents in Combinations in Complex Spheroids
A high-throughput screen of multi-cell type tumor spheroids was designed to identify active combinations of DNA G-quadruplex stabilizer agents and targeted small molecules. Complex spheroids include a stromal component modeled by human endothelial cells (HUVEC) and fibroblasts modeled by human mesenchymal stem cells (MSCs). The concentration ranges selected for each drug and investigational agent were based upon clinically achievable concentrations if the clinical Cmax of the agent was known.
Compounds. The drugs and investigational agents: pidnarulex (CX-5461; NSC782164), APTO-253 (NSC789042), BRACO-19 (NSC847499), peposertib (NSC802822), ceralasertib (NSC780249), elimusertib (NSC800525), camonsertib (NSC841442), AZD-1390 (NSC803789), olaparib (NSC753686), talazoparib (NSC767125), ART-558 (NSC835418), sotorasib (NSC818433), MRTX-1133 (NSC836407), SN-38 (NSC673596), topotecan (NSC609699), etoposide (NSC141540), doxorubicin (NSC123127), gemcitabine (NSC613327), 5-fluorouracil (NSC19893), paclitaxel (NSC125973), vemurafenib (NSC761431), panobinostat (NSC761190), R-306465 (JNJ-16241199; NSC773264), adavosertib (NSC754352), TP-3654 (NSC805149), carboplatin (NSC241240), KSQ-4279 (NSC840948), and staurosporine (NSC755774) were obtained from the National Cancer Institute (NCI) Developmental Therapeutics Program Chemical Repository (34). The FDA-approved anticancer drug set is available from the NCI Developmental Therapeutics Program. […] The stock solutions were prepared in dimethyl sulfoxide (DMSO, Sigma-Aldrich, St. Louis, MO, cat. D2650) at 800-fold the tested concentration and stored at -70 degrees C prior to their use. All drugs and investigational agents were tested over a range starting from a high concentration at or near the clinical Cmax and decreasing in half-log increments. If the clinical Cmax for an agent had not been determined, the highest concentration tested was 10 microM.
2.3 Cell Culture. All cells were maintained in an incubator at 37 degrees C and 5% CO2 with 95% humidity. The PDC lines were cultured according to standard operating procedures established by the NCI PDMR. All PDCs were thawed and cultured in Matrigel-coated flasks prepared with a working solution of 1X Ham's F-12 nutrient mix, without supplementation (Invitrogen, cat. 11765054), 100 U/mL penicillin-streptomycin (Invitrogen, cat. 15140122), and 2.5% Matrigel (Corning Inc., cat. 354248) for the first three passages. The 857933-349-R-J2-PDC line was cultured in 6C/Colon 1B media, which includes advanced DMEM/F-12 (Thermo Fisher Scientific, cat. 12634028), 10 mM HEPES (Thermo Fisher Scientific, cat. 15630080), 1X GlutaMAX supplement (Thermo Fisher Scientific, cat. 35050061), 0.1 mg/mL primocin (InvivoGen, cat. ant-pm-2), 10% defined fetal bovine serum, heat inactivated (HyClone Laboratories Inc., cat. SH30070.03HI), 50% L-WRN conditioned media (ATCC, cat. CRL-3276), 1.25 mM N-Acetyl-L-cysteine (Sigma-Aldrich, cat. A9165), 10 mM nicotinamide (Sigma-Aldrich, cat. N0636), 1X B-27 supplement (Thermo Fisher Scientific, cat. 17504044), 1X N-2 supplement (Thermo Fisher Scientific, cat. 17502048), 10 microM Y-27632 dihydrochloride (Tocris Bioscience, cat. 1254), and 50 ng/mL human EGF recombinant protein (Thermo Fisher Scientific, cat. PHG0311). The 485176-168-R4-J1-PDC line was cultured in Panc media, which includes all 6C/Colon 1B media components plus 100 ng/mL human FGF-10 (Thermo Fisher Scientific, cat. 100-26), 500 nM SB-431542 (Selleckchem, cat. S1067), and gastrin (Tocris, cat. 3006).
[…]
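Note: spheroids exposed to the agents for 7 days before readout.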
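Throughout, for viability, T/C: percent of luminescence signal in DMSO vehicle wells taken as 100% viability.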

Work on `CC1COCCN1c1cc(C2(S(C)(=N)=O)CC2)nc(-c2ccnc3[nH]ccc23)n1` (configuration not stated) + CN(C)c1ccc(Nc2c3ccc(NC(=O)CCN4CCCC4)cc3nc3cc(NC(=O)CCN4CCCC4)ccc23)cc1 yielded an IC50 (second compound 0.0316 µM) greater than 10 µM, an IC50 (second compound 0.1 µM) greater than 10 µM and an IC50 (second compound 0.316 µM) greater than 10 µM. The IC50 (second compound 1 µM) was greater than 10 µM, the IC50 (second compound 3.16 µM) was greater than 10 µM and the IC50 (second compound 10 µM) was greater than 10 µM. It also gave a viability, T/C (second compound 0.0316 µM, first compound 0.0316 µM) of 93.8%, a viability, T/C (second compound 0.0316 µM, first compound 0.1 µM) of 90% and a viability, T/C (second compound 0.0316 µM, first compound 0.316 µM) of 92.4%. For the same molecule, the viability, T/C (second compound 0.0316 µM, first compound 1 µM) was 86.8%, the viability, T/C (second compound 0.0316 µM, first compound 3.16 µM) was 89.7% and the viability, T/C (second compound 0.0316 µM, first compound 10 µM) was 65%. For the same molecule, the viability, T/C (second compound 0.1 µM, first compound 0.0316 µM) was 97.1%, the viability, T/C (second compound 0.1 µM, first compound 0.1 µM) was 97.4% and the viability, T/C (second compound 0.1 µM, first compound 0.316 µM) was 89.9%. It also gave a viability, T/C (second compound 0.1 µM, first compound 1 µM) of 94.7%, a viability, T/C (second compound 0.1 µM, first compound 3.16 µM) of 79.9% and a viability, T/C (second compound 0.1 µM, first compound 10 µM) of 64.4%. For the same molecule, the viability, T/C (second compound 0.316 µM, first compound 0.0316 µM) was 93.3%, the viability, T/C (second compound 0.316 µM, first compound 0.1 µM) was 107% and the viability, T/C (second compound 0.316 µM, first compound 0.316 µM) was 97.8%. For the same molecule, the viability, T/C (second compound 0.316 µM, first compound 1 µM) was 100%, the viability, T/C (second compound 0.316 µM, first compound 3.16 µM) was 93.4% and the viability, T/C (second compound 0.316 µM, first compound 10 µM) was 64.3%. For the same molecule, the viability, T/C (second compound 1 µM, first compound 0.0316 µM) was 100%, the viability, T/C (second compound 1 µM, first compound 0.1 µM) was 107% and the viability, T/C (second compound 1 µM, first compound 0.316 µM) was 102%. The viability, T/C (second compound 1 µM, first compound 1 µM) was 86.8%, the viability, T/C (second compound 1 µM, first compound 3.16 µM) was 84.5% and the viability, T/C (second compound 1 µM, first compound 10 µM) was 67.6%. It also gave a viability, T/C (second compound 3.16 µM, first compound 0.0316 µM) of 105%, a viability, T/C (second compound 3.16 µM, first compound 0.1 µM) of 98.9% and a viability, T/C (second compound 3.16 µM, first compound 0.316 µM) of 104%. It also gave a viability, T/C (second compound 3.16 µM, first compound 1 µM) of 93.5%, a viability, T/C (second compound 3.16 µM, first compound 3.16 µM) of 88.6% and a viability, T/C (second compound 3.16 µM, first compound 10 µM) of 62.4%. It also gave a viability, T/C (second compound 10 µM, first compound 0.0316 µM) of 97.3%, a viability, T/C (second compound 10 µM, first compound 0.1 µM) of 98.6% and a viability, T/C (second compound 10 µM, first compound 0.316 µM) of 115%. It also gave a viability, T/C (second compound 10 µM, first compound 1 µM) of 106%, a viability, T/C (second compound 10 µM, first compound 3.16 µM) of 81.8% and a viability, T/C (second compound 10 µM, first compound 10 µM) of 63.7%.
